# Experimental data taken from US20100248390A1, “COMPOSITIONS AND METHODS FOR IDENTIFYING LIGANDS OF ODORANT RECEPTORS” (DUKE UNIVERSITY, priority 2009, published 2010).
# Like-named read-outs stand apart in the source and are kept apart here.
# How the values were obtained:
# Assay in all cases: CRE-luciferase assay of odorant receptor activation (Dual-Glo, Hana3A cells, RTP1S), dose-response EC50
# Type in all cases: cell-based
# [1] = target: T1, human odorant receptors (ORs) (Homo sapiens, UniProt Q8NG81); details: receptor OR2M7
# T1 construct: OR open reading frames were amplified from genomic DNA; expressed in transfected cells; host or cells: Hana3A cells, co-transfected with RTP1S, CRE-luciferase and pRL-SV40
# T1 sequence (Q8NG81 1-312): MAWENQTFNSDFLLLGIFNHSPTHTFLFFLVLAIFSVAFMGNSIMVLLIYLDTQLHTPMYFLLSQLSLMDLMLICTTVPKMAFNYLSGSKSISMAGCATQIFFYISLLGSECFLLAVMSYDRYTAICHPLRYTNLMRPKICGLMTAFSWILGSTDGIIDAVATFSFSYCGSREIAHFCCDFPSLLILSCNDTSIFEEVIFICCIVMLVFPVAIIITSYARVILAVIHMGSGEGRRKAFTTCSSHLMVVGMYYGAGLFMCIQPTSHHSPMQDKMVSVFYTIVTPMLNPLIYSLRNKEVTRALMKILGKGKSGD
# Outline: (§1)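 Hana3A cells were co-transfected with Rho-tagged OR, RTP1S, CRE-luciferase and pRL-SV40, then exposed to odorant in CD293 medium for 4 hrs at 37° C. Firefly luminescence was divided by Renilla and normalized as (LN−Lmin)/(Lmax−Lmin) per plate set. Each dose was tested at least three times, and EC50 came from sigmoidal fits.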
# [2] = target: T2, human odorant receptors (ORs) (Homo sapiens, UniProt Q8NGJ5)
# T2 construct: OR open reading frames were amplified from genomic DNA; expressed in transfected cells; host or cells: Hana3A cells, co-transfected with RTP1S, CRE-luciferase and pRL-SV40
# T2 sequence (Q8NGJ5 1-315): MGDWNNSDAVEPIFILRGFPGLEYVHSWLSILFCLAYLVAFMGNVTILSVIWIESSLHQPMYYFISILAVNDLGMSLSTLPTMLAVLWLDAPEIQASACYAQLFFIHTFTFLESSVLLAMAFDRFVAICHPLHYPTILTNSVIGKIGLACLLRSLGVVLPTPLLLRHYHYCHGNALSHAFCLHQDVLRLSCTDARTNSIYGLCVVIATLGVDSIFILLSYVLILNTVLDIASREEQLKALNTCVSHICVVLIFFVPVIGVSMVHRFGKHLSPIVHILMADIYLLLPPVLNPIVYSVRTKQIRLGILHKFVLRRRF
# Outline: as §1
# [3] = target: T3, human odorant receptors (ORs) (Homo sapiens, UniProt O95371); details: receptor OR2C1; read-out: log EC50 of odorant at OR2C1 (0 = no response) (converted)
# T3 construct: OR open reading frames were amplified from genomic DNA; expressed in transfected cells; host or cells: Hana3A cells, co-transfected with RTP1S, CRE-luciferase and pRL-SV40
# T3 sequence (O95371 1-312): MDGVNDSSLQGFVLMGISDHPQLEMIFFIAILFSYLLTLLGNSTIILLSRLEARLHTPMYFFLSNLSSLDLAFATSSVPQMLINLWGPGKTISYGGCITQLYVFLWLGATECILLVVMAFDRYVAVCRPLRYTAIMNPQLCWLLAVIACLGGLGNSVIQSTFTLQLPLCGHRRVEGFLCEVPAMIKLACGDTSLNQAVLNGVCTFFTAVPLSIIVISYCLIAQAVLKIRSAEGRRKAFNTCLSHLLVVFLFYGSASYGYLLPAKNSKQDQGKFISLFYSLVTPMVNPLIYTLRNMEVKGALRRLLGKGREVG
# Outline: as §1
# [4] = target: T4, human odorant receptors (ORs) (Homo sapiens, UniProt Q8TCB6)
# T4 construct: OR open reading frames were amplified from genomic DNA; expressed in transfected cells; host or cells: Hana3A cells, co-transfected with RTP1S, CRE-luciferase and pRL-SV40
# T4 sequence (Q8TCB6 1-318): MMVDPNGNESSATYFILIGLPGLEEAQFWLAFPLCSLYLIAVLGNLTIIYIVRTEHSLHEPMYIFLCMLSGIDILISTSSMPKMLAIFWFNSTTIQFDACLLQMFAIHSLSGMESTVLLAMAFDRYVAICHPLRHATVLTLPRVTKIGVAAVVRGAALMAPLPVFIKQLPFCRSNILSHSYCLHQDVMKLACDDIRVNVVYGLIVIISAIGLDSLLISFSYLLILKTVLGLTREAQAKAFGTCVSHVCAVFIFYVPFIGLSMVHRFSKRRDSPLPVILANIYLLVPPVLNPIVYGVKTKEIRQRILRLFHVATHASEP
# Outline: as §1
smiles,measurement,setting,value
"CC(C)=CCCC(C)CCO (single isomer, unassigned; (-)) [(−)-b-C ? inedol]",EC50,"[1]; 0 = no response, read-out: log EC50, OR2M7 (converted)",140 µM
C=CCOC(=O)Cc1ccccc1 [Allyl phenylacetate],EC50,[2],67.6 µM
CC(C)=CCC/C(C)=C/CO [Getaniol],EC50,"[1]; read-out: log EC50 (Table 4 value), OR2M7 (converted)",627 µM
CCCCCCCCCS [Nonanethiol],EC50,[3],128 µM
CCCCCCCCC(=O)O [Nonanoic acid],EC50,[4],246 µM
CCCCCCCCS [Octanethiol],EC50,[3],88.9 µM
